The data set relates to CCRIS mutagenicity, Ames/micronucleus/aberration tests. Description: CCRIS mutagenicity studies.
The mark [1] stands for this setting: Test System: AMES SALMONELLA TYPHIMURIUM, Strain/Indicator: TA98, Metabolic Activation: NONE, Method: PREINCUBATION
The mark [2] stands for this setting: Test System: AMES SALMONELLA TYPHIMURIUM, Strain/Indicator: TA100, Metabolic Activation: NONE, Method: PREINCUBATION
Setting [3] is: Test System: AMES SALMONELLA TYPHIMURIUM, Strain/Indicator: TA98, Metabolic Activation: NONE, Method: STANDARD PLATE.

Active and inactive are the calls of the source. How the calls were made is not given here.

Turning to `c1cc[c]([Sn]([c]2ccccc2)([c]2ccccc2)[c]2ccccc2)cc1`, the mutagenic call by setting is: (Test System: AMES SALMONELLA TYPHIMURIUM, Strain/Indicator: TA98, Metabolic Activation: NONE, Method: SUSPENSION/PLATE) “inactive; negative”; (Test System: AMES SALMONELLA TYPHIMURIUM, Strain/Indicator: TA100, Metabolic Activation: NONE, Method: SUSPENSION/PLATE) “inactive; negative”.

Turning to `O=S(=O)(O)c1ccc2c(N=Nc3ccccc3)c(O)ccc2c1`, the mutagenic call by setting is: under setting [1], “inactive; negative”; (Test System: AMES SALMONELLA TYPHIMURIUM, Strain/Indicator: TA98, Metabolic Activation: RAT, LIVER, S-9, PHENOBARBITAL, Method: PREINCUBATION) “inactive; negative”; under setting [2], “inactive; negative”; (Test System: AMES SALMONELLA TYPHIMURIUM, Strain/Indicator: TA100, Metabolic Activation: RAT, LIVER, S-9, PHENOBARBITAL, Method: PREINCUBATION) “inactive; negative”.

Regarding `CCCCCCCCCCCCOC[N+](C)(C)Cc1ccccc1`, the mutagenic call (Test System: BACILLUS SUBTILIS, Strain/Indicator: H17/REC, Metabolic Activation: NONE, Method: STANDARD PLATE) was “inactive; negative” and the mutagenic call (Test System: BACILLUS SUBTILIS, Strain/Indicator: M45, Metabolic Activation: NONE, Method: STANDARD PLATE) is “inactive; negative”.

Regarding `COc1cccc2c1C(=O)c1c(O)c3c(c(O)c1C2=O)CC(O)(C(C)=O)CC3O[C@H]1C[C@H](N2CCOCC2)[C@@H](O)C(C)O1` (some centres undefined), the mutagenic call (Test System: CHINESE HAMSTER V-79, Strain/Indicator: V-79/8-AZAGUANINE, Metabolic Activation: NONE) is “active; positive”; the mutagenic call (Test System: CHINESE HAMSTER V-79, Strain/Indicator: V-79/8-AZAGUANINE, Metabolic Activation: RAT, HEPATOCYTES) is “inactive; negative”; the mutagenic call (Test System: UDS RAT HEPATOCYTES, Strain/Indicator: THY INCORP, Metabolic Activation: NONE, Method: AUTOMATIC COLONY COUNTER) is “active; positive”.

In the case of `O=Cc1c(O)cc2c(c1O)C(=O)c1ccccc1C2=O`, the mutagenic call reads like this: under setting [1], “inactive; negative”; (Test System: AMES SALMONELLA TYPHIMURIUM, Strain/Indicator: TA98, Metabolic Activation: RAT, LIVER, S-9, PCB, Method: PREINCUBATION) “inactive; negative”; under setting [2], “inactive; negative”; (Test System: AMES SALMONELLA TYPHIMURIUM, Strain/Indicator: TA100, Metabolic Activation: RAT, LIVER, S-9, PCB, Method: PREINCUBATION) “inactive; negative”.

`Clc1ccccc1-c1nc2ccccc2o1`: the mutagenic call is, setting by setting: under setting [3], “inactive; negative”; (Test System: AMES SALMONELLA TYPHIMURIUM, Strain/Indicator: TA98, Metabolic Activation: S-9, Method: STANDARD PLATE) “inactive; negative”.

Take `S=P(N1CC1)(N1CC1)N1CC1`: the mutagenic call reads like this: (Test System: AMES SALMONELLA TYPHIMURIUM, Strain/Indicator: TA98, Metabolic Activation: HAMSTER, LIVER, S-9, AROCLOR 1254 (30%), Method: PREINCUBATION) “inactive; negative”; under setting [1], “inactive; negative”; under setting [3], “inactive; negative”; (Test System: AMES SALMONELLA TYPHIMURIUM, Strain/Indicator: TA98, Metabolic Activation: RAT, LIVER, S-9, AROCLOR 1254 (30%), Method: PREINCUBATION) “inactive; negative”; (Test System: AMES SALMONELLA TYPHIMURIUM, Strain/Indicator: TA100, Metabolic Activation: HAMSTER, LIVER, S-9, AROCLOR 1254 (30%), Method: PREINCUBATION) “active; positive”; under setting [2], “active; positive”. Further, the mutagenic call (Test System: AMES SALMONELLA TYPHIMURIUM, Strain/Indicator: TA100, Metabolic Activation: NONE, Method: STANDARD PLATE) is “active; positive”; the mutagenic call (Test System: AMES SALMONELLA TYPHIMURIUM, Strain/Indicator: TA100, Metabolic Activation: RAT, LIVER, S-9, AROCLOR 1254 (30%), Method: PREINCUBATION) was “active; positive”; the mutagenic call (Test System: AMES SALMONELLA TYPHIMURIUM, Strain/Indicator: TA1535, Metabolic Activation: NONE, Method: STANDARD PLATE) is “active; positive”; the mutagenic call (Test System: AMES SALMONELLA TYPHIMURIUM, Strain/Indicator: TA1537, Metabolic Activation: NONE, Method: STANDARD PLATE) is “inactive; negative”; the mutagenic call (Test System: CHINESE HAMSTER V-79, Strain/Indicator: V-79/6-THIOGUANINE, Metabolic Activation: NONE, Method: FLASK ASSAY) was “inactive; negative”; the mutagenic call (Test System: E. COLI, Strain/Indicator: WP2 (HCR), Metabolic Activation: NONE, Method: STANDARD PLATE) is “active; positive”.

`Fc1ccc2cccnc2c1F`: the mutagenic call (Test System: AMES SALMONELLA TYPHIMURIUM, Strain/Indicator: TA100, Metabolic Activation: RAT LIVER S-9, PHENOBARBITAL AND 5,6-BENZOFLAVONE, Method: PREINCUBATION) is “active; positive”.

As to `C[n+]1cccc(-c2ccc[n+](C)c2)c1`, the mutagenic call is “inactive; negative” (Test System: AMES SALMONELLA TYPHIMURIUM, Strain/Indicator: TA97, Metabolic Activation: RAT, LIVER, S-9, PHENOBARBITAL, Method: STANDARD PLATE); “inactive; negative” (Test System: AMES SALMONELLA TYPHIMURIUM, Strain/Indicator: TA98, Metabolic Activation: RAT, LIVER, S-9, PHENOBARBITAL, Method: STANDARD PLATE); “active; positive” (Test System: AMES SALMONELLA TYPHIMURIUM, Strain/Indicator: TA100, Metabolic Activation: RAT, LIVER, S-9, PHENOBARBITAL, Method: STANDARD PLATE); “inactive; negative” (Test System: AMES SALMONELLA TYPHIMURIUM, Strain/Indicator: TA1535, Metabolic Activation: RAT, LIVER, S-9, PHENOBARBITAL, Method: STANDARD PLATE); “inactive; negative” (Test System: AMES SALMONELLA TYPHIMURIUM, Strain/Indicator: TA1537, Metabolic Activation: RAT, LIVER, S-9, PHENOBARBITAL, Method: STANDARD PLATE); “inactive; negative” (Test System: AMES SALMONELLA TYPHIMURIUM, Strain/Indicator: TA1538, Metabolic Activation: RAT, LIVER, S-9, PHENOBARBITAL, Method: STANDARD PLATE).

As to `O=C[C@H](O)[C@@H](O)[C@H](O)[C@H](O)CO`, the mutagenic call was “inactive; negative” (Test System: AMES SALMONELLA TYPHIMURIUM, Strain/Indicator: TA98, Metabolic Activation: RAT LIVER S-9, CHLOROPHENE, Method: STANDARD PLATE (COMPOUND HEATED AT 250 DEGREES CELSIUS FOR 20 MIN)) and “active; positive” (Test System: MOUSE LYMPHOMA, Strain/Indicator: L5178Y (TK+/TK-), Metabolic Activation: NONE, Method: SUSPENSION/PLATE).

For the compound `Cc1ccc2c(c1)c(=NC(=O)c1ccccc1[N+](=O)[O-])sn2C(=O)c1ccccc1[N+](=O)[O-]`, the mutagenic call (Test System: AMES SALMONELLA TYPHIMURIUM, Strain/Indicator: TA100, Metabolic Activation: S-9, Method: STANDARD PLATE) was “inactive; negative”.

For the origin of these results see PubChem BioAssay AID1259407 (Chemical Carcinogenesis Research Information System (CCRIS), 2018).
